Measurements as given in the NIST ThermoML archive (doi:10.1021/je800463k).

Test: mn = molality of the nth substance listed, in mol/kg
Settings: 101 kPa, Liquid; for electrical conductivity: Frequency=0.001 MHz, Alternating current cell with electrodes; for speed of sound: Frequency=2 MHz

O=[N+]([O-])[O-].O=[N+]([O-])[O-].[Mg+2] [magnesium nitrate] + CO
Settings	electrical conductivity, 273.15 K [S/m]	electrical conductivity, 278.15 K [S/m]	electrical conductivity, 283.15 K [S/m]	electrical conductivity, 288.15 K [S/m]	speed of sound, 273.15 K [m/s]	speed of sound, 278.15 K [m/s]	speed of sound, 283.15 K [m/s]	viscosity, 273.15 K [mPa·s]	viscosity, 278.15 K [mPa·s]	viscosity, 283.15 K [mPa·s]
m1 = 0.0082	0.1095	0.1165	0.1221	0.1281	1187.6	1171.2	1158.5	0.8298	0.7627	0.7006
m1 = 0.0545	0.3036	0.321	0.3368	0.3616	1194.3	1178.6	1163.6	0.8885	0.8108	0.7465
m1 = 0.0667	0.3337	0.3538	0.3738	–	1197.6	1181.3	1164.3	0.9109	0.836	0.775
m1 = 0.1047	0.4393	0.4655	0.4908	–	1202.4	1185.8	1168.9	0.9548	0.8755	0.8049
m1 = 0.2776	0.8097	0.8637	0.9168	–	1220.4	1203	1187.4	1.129	1.029	0.9437
m1 = 0.4024	1.002	1.073	1.143	–	1228.8	1214.1	1198.4	1.336	1.213	1.109
m1 = 0.4555	1.043	1.117	1.192	–	1237	1222.1	1204.7	1.4	1.273	1.158
m1 = 0.6276	1.207	1.3	1.394	–	1253.3	1235.6	1219.1	1.836	1.732	1.562
m1 = 0.782	1.31	1.417	1.528	–	1270.9	1254.4	1238.3	2.128	1.905	1.719
m1 = 0.881	1.334	1.447	1.561	–	1274.9	1257.8	1241	2.18	1.938	1.743
m1 = 0.9116	1.344	1.459	1.573	–	1279.9	1263.2	1247.8	2.329	2.079	1.866
m1 = 1.004	1.372	1.494	1.618	–	1293.4	1277.2	1261.1	2.559	2.278	2.041
m1 = 1.259	1.361	1.494	1.632	–	1315.8	1298.8	1282.7	3.717	3.26	2.891
m1 = 1.492	1.314	1.453	1.597	–	1340.4	1324.8	1308.1	4.748	4.119	3.619
m1 = 1.71	1.281	1.436	1.59	–	1360.5	1343.7	1327.3	6.086	5.244	4.554
m1 = 1.875	1.238	1.383	1.538	–	1368.6	1352.5	1335.4	7.175	6.178	5.339
